Laboratory results from PubChem BioAssay AID270 (DTP/NCI, 2004).
“And” between values parts separate entries of the source, which are not always exact repeats. Identical values can stand only once. Inconclusive results are not listed.

Test system: BDF1 mice, s.c. Lewis lung carcinoma, T/C %
Assay: NCI In Vivo Anticancer Drug Screen. Data for tumor model Lewis Lung Carcinoma (subcutaneous) in B6D2F1 (BDF1) mice
Outline: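 First, mice carry a transplantable tumor. Next, groups receive either compound or vehicle. Finally, survival or tumor dimensions in the dosed animals are divided by the corresponding control figure.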

[1] = endpoint: median survival time, dose: 100.0 mg/kg/injection, schedule: Q01DX009 (ip), vehicle: saline, higher = longer survival

COC(COC(N)=O)C1=C(N2CC2)C(=O)C(C)=C(N2CC2)C1=O (stereo not given)
T/C (endpoint: median survival time, dose: 0.03 mg/kg/injection, schedule: Q01DX009 (ip), vehicle: Klucel (hydroxypropylcellulose) (HPC), higher = longer survival): 96 % of control | T/C (endpoint: median survival time, dose: 0.12 mg/kg/injection, schedule: Q01DX009 (ip), vehicle: Klucel (hydroxypropylcellulose) (HPC), higher = longer survival): 103 % of control | T/C (endpoint: median survival time, dose: 0.25 mg/kg/injection, schedule: Q01DX009 (ip), vehicle: Klucel (hydroxypropylcellulose) (HPC), higher = longer survival): 107 % of control | T/C (endpoint: median survival time, dose: 0.5 mg/kg/injection, schedule: Q01DX009 (ip), vehicle: Klucel (hydroxypropylcellulose) (HPC), higher = longer survival): 119 % of control | T/C (endpoint: median survival time, dose: 1.0 mg/kg/injection, schedule: Q01DX009 (ip), vehicle: Klucel (hydroxypropylcellulose) (HPC), higher = longer survival): 93 % of control

CC(=O)[C@H]1CC[C@H]2[C@@H]3C[C@H](C)C4=CC(=O)CC[C@]4(C)[C@H]3C(=O)C[C@]12C
T/C (endpoint: mean tumor weight (est.), dose: 100.0 mg/kg/injection, schedule: Q01DX009 (ip), vehicle: saline, higher = larger tumour): 65 % of control | T/C (endpoint: mean tumor weight (est.), dose: 200.0 mg/kg/injection, schedule: Q01DX009 (ip), vehicle: saline, higher = larger tumour): 35 % of control | T/C (endpoint: mean tumor weight (est.), dose: 400.0 mg/kg/injection, schedule: Q01DX009 (ip), vehicle: saline, higher = larger tumour): 37 % of control | T/C (endpoint: mean tumor weight (est.), dose: 800.0 mg/kg/injection, schedule: Q01DX009 (ip), vehicle: saline, higher = larger tumour): 60 % of control | T/C [1]: 103 % of control | T/C (endpoint: median survival time, dose: 200.0 mg/kg/injection, schedule: Q01DX009 (ip), vehicle: saline, higher = longer survival): 110 % of control | T/C (endpoint: median survival time, dose: 400.0 mg/kg/injection, schedule: Q01DX009 (ip), vehicle: saline, higher = longer survival): 113 % of control | T/C (endpoint: median survival time, dose: 800.0 mg/kg/injection, schedule: Q01DX009 (ip), vehicle: saline, higher = longer survival): 100 % of control

CCN(CC)Cc1cc(Nc2c3ccccc3nc3cc(Cl)ccc23)ccc1O
T/C (endpoint: mean tumor weight, dose: 40.0 mg/kg/injection, schedule: Q01DX011 (ip), vehicle: other, higher = larger tumour): 48 % of control

CCS(=O)(=O)Nc1cccc(Nc2c3cccc(C)c3nc3c(C)cccc23)c1OC
T/C (endpoint: median survival time, dose: 12.5 mg/kg/injection, schedule: Q01DX011 (ip), vehicle: saline with Tween-80, higher = longer survival): 111 % of control | T/C (endpoint: median survival time, dose: 25.0 mg/kg/injection, schedule: Q01DX011 (ip), vehicle: saline with Tween-80, higher = longer survival): 101 % of control | T/C (endpoint: median tumor weight (est.), dose: 12.5 mg/kg/injection, schedule: Q01DX011 (ip), vehicle: saline with Tween-80, higher = larger tumour): 82 % of control | T/C (endpoint: median tumor weight (est.), dose: 25.0 mg/kg/injection, schedule: Q01DX011 (ip), vehicle: saline with Tween-80, higher = larger tumour): 44 % of control

CC(C)NC(=O)c1ccc(N/N=[N+](/C)[O-])cc1
T/C (endpoint: median survival time, dose: 6.25 mg/kg/injection, schedule: Q01DX005 (ip), vehicle: saline with Tween-80, higher = longer survival): 105 % of control | T/C (endpoint: median survival time, dose: 12.5 mg/kg/injection, schedule: Q01DX005 (ip), vehicle: saline with Tween-80, higher = longer survival): 102 % of control | T/C (endpoint: median survival time, dose: 25.0 mg/kg/injection, schedule: Q01DX005 (ip), vehicle: saline with Tween-80, higher = longer survival): 106 % of control | T/C (endpoint: median survival time, dose: 50.0 mg/kg/injection, schedule: Q01DX005 (ip), vehicle: saline with Tween-80, higher = longer survival): 90 % of control and 103 % of control | T/C (endpoint: median survival time, dose: 100.0 mg/kg/injection, schedule: Q01DX005 (ip), vehicle: saline with Tween-80, higher = longer survival): 111 % of control and 112 % of control | T/C (endpoint: median survival time, dose: 200.0 mg/kg/injection, schedule: Q01DX005 (ip), vehicle: saline with Tween-80, higher = longer survival): 110 % of control

Nc1nc(SCc2ccc([N+](=O)[O-])cc2)c2[nH]cnc2n1
T/C (endpoint: mean tumor weight, dose: 125.0 mg/kg/injection, schedule: Q01DX011 (ip), vehicle: other, higher = larger tumour): 98 % of control | T/C (endpoint: mean tumor weight, dose: 250.0 mg/kg/injection, schedule: Q01DX011 (ip), vehicle: other, higher = larger tumour): 75 % of control | T/C (endpoint: mean tumor weight, dose: 500.0 mg/kg/injection, schedule: Q01DX011 (ip), vehicle: other, higher = larger tumour): 80 % of control | T/C (endpoint: mean tumor weight, dose: 1000.0 mg/kg/injection, schedule: Q01DX011 (ip), vehicle: other, higher = larger tumour): 36 % of control

CC(C)CNc1ccc(S(=O)(=O)c2ccc(NCC(C)C)c([N+](=O)[O-])c2)cc1[N+](=O)[O-]
T/C (endpoint: median survival time, dose: 6.25 mg/kg/injection, schedule: Q01DX009 (ip), vehicle: saline with Tween-80, higher = longer survival): 110 % of control | T/C (endpoint: median survival time, dose: 12.5 mg/kg/injection, schedule: Q01DX009 (ip), vehicle: saline with Tween-80, higher = longer survival): 103 % of control | T/C (endpoint: median survival time, dose: 25.0 mg/kg/injection, schedule: Q01DX009 (ip), vehicle: saline with Tween-80, higher = longer survival): 109 % of control | T/C (endpoint: median survival time, dose: 50.0 mg/kg/injection, schedule: Q01DX009 (ip), vehicle: saline with Tween-80, higher = longer survival): 86 % of control

c1ccc2nc3ccccc3c-2cc1
T/C (endpoint: mean tumor weight, dose: 125.0 mg/kg/injection, schedule: Q01DX011 (ip), vehicle: saline, higher = larger tumour): 90 % of control | T/C (endpoint: mean tumor weight, dose: 250.0 mg/kg/injection, schedule: Q01DX011 (ip), vehicle: saline, higher = larger tumour): 76 % of control | T/C (endpoint: mean tumor weight, dose: 500.0 mg/kg/injection, schedule: Q01DX011 (ip), vehicle: saline, higher = larger tumour): 48 % of control | T/C (endpoint: mean tumor weight, dose: 1000.0 mg/kg/injection, schedule: Q01DX011 (ip), vehicle: saline, higher = larger tumour): 56 % of control

NNc1nncc2ccccc12
T/C (endpoint: mean tumor weight, dose: 13.0 mg/kg/injection, schedule: Q01DX011 (ip), vehicle: carboxymethylcellulose (CMC), higher = larger tumour): 111 % of control | T/C (endpoint: mean tumor weight, dose: 20.0 mg/kg/injection, schedule: Q01DX011 (ip), vehicle: carboxymethylcellulose (CMC), higher = larger tumour): 87 % of control | T/C (endpoint: mean tumor weight, dose: 30.0 mg/kg/injection, schedule: Q01DX011 (ip), vehicle: carboxymethylcellulose (CMC), higher = larger tumour): 110 % of control

CCCCC(=O)OCC(=O)[C@]1(O)Cc2c(O)c3c(c(O)c2[C@@H](OC2CC(NC(=O)C(F)(F)F)C(O)C(C)O2)C1)C(=O)c1c(OC)cccc1C3=O (stereo not given in full)
T/C (endpoint: median survival time, dose: 14.0 mg/kg/injection, schedule: Q01DX009 (ip), vehicle: distilled water + Tween-80, higher = longer survival): 114 % of control | T/C (endpoint: median survival time, dose: 20.0 mg/kg/injection, schedule: Q01DX009 (ip), vehicle: distilled water + Tween-80, higher = longer survival): 123 % of control | T/C (endpoint: median survival time, dose: 54.0 mg/kg/injection, schedule: Q01DX001 (ip), vehicle: distilled water + Tween-80, higher = longer survival): 113 % of control | T/C (endpoint: median survival time, dose: 80.0 mg/kg/injection, schedule: Q01DX001 (ip), vehicle: distilled water + Tween-80, higher = longer survival): 155 % of control | T/C (endpoint: median survival time, dose: 120.0 mg/kg/injection, schedule: Q01DX001 (ip), vehicle: distilled water + Tween-80, higher = longer survival): 158 % of control

CCCOP(=S)(N1CC1)N1CC1
T/C (endpoint: median survival time, dose: 18.75 mg/kg/injection, schedule: Q01DX009 (ip), vehicle: Klucel (hydroxypropylcellulose) (HPC), higher = longer survival): 112 % of control | T/C (endpoint: median survival time, dose: 37.5 mg/kg/injection, schedule: Q01DX009 (ip), vehicle: Klucel (hydroxypropylcellulose) (HPC), higher = longer survival): 95 % of control | T/C (endpoint: median survival time, dose: 75.0 mg/kg/injection, schedule: Q01DX009 (ip), vehicle: Klucel (hydroxypropylcellulose) (HPC), higher = longer survival): 94 % of control | T/C [1]: 116 % of control

Cc1cc2c(c3oc(C4(C)OC4C4OC4C)cc(=O)c13)C(=O)c1c(O)c(C3CC(C)(N(C)C)C(O)C(C)O3)cc(C3CC(N(C)C)C(O)C(C)O3)c1C2=O (stereo not given)
T/C (endpoint: median survival time, dose: 4.0 micrograms/kg/injection, schedule: Q01DX009 (ip), vehicle: DMSO, higher = longer survival): 105 % of control | T/C (endpoint: median survival time, dose: 8.0 micrograms/kg/injection, schedule: Q01DX009 (ip), vehicle: DMSO, higher = longer survival): 108 % of control | T/C (endpoint: median survival time, dose: 16.0 micrograms/kg/injection, schedule: Q01DX009 (ip), vehicle: DMSO, higher = longer survival): 100 % of control

Cc1cc2oc(=O)c3c(c2c(O)c1CN1CCCC1)CCCC3
T/C (endpoint: median survival time, dose: 29.0 mg/kg/injection, schedule: Q01DX009 (ip), vehicle: Klucel (hydroxypropylcellulose) (HPC), higher = longer survival): 94 % of control | T/C (endpoint: median survival time, dose: 58.0 mg/kg/injection, schedule: Q01DX009 (ip), vehicle: Klucel (hydroxypropylcellulose) (HPC), higher = longer survival): 106 % of control | T/C (endpoint: median survival time, dose: 116.0 mg/kg/injection, schedule: Q01DX009 (ip), vehicle: Klucel (hydroxypropylcellulose) (HPC), higher = longer survival): 106 % of control | T/C (endpoint: median survival time, dose: 232.0 mg/kg/injection, schedule: Q01DX009 (ip), vehicle: Klucel (hydroxypropylcellulose) (HPC), higher = longer survival): 94 % of control

COc1cccc(/C=N/NC(=O)c2ccccc2N2CCCC2)c1O
T/C (endpoint: median survival time, dose: 100.0 mg/kg/injection, schedule: Q01DX009 (ip), vehicle: olive oil, sesame oil, peanut oil, higher = longer survival): 90 % of control

COc1c(OC)c(O)c2c(=O)cc(-c3ccc(O)cc3)oc2c1OC
T/C (endpoint: mean tumor weight, dose: 25.0 mg/kg/injection, schedule: Q01DX011 (sc), vehicle: steriod suspending solution, higher = larger tumour): 100 % of control | T/C (endpoint: mean tumor weight, dose: 50.0 mg/kg/injection, schedule: Q01DX011 (sc), vehicle: steriod suspending solution, higher = larger tumour): 81 % of control | T/C (endpoint: mean tumor weight, dose: 100.0 mg/kg/injection, schedule: Q01DX011 (sc), vehicle: steriod suspending solution, higher = larger tumour): 85 % of control | T/C (endpoint: mean tumor weight, dose: 200.0 mg/kg/injection, schedule: Q01DX011 (sc), vehicle: steriod suspending solution, higher = larger tumour): 68 % of control

COc1ccc2c3c(c4cc(OC)c(OC)cc4c2c1)C[C@H]1CCCCN1C3
T/C (endpoint: mean tumor weight, dose: 0.25 mg/kg/injection, schedule: Q01DX011 (ip), vehicle: other, higher = larger tumour): 90 % of control and 100 % of control | T/C (endpoint: mean tumor weight, dose: 0.5 mg/kg/injection, schedule: Q01DX011 (ip), vehicle: other, higher = larger tumour): 190 % of control | T/C (endpoint: mean tumor weight, dose: 0.75 mg/kg/injection, schedule: Q01DX011 (ip), vehicle: other, higher = larger tumour): 87 % of control

CC(=O)O[C@@H]1[C@H]2O[C@H]2[C@H]2O[C@@]2(COC(=O)c2ccccc2)[C@H]1OC(C)=O
T/C (endpoint: mean tumor weight, dose: 150.0 mg/kg/injection, schedule: Q01DX011 (ip), vehicle: carboxymethylcellulose (CMC), higher = larger tumour): 24 % of control | T/C (endpoint: mean tumor weight, dose: 200.0 mg/kg/injection, schedule: Q01DX011 (ip), vehicle: carboxymethylcellulose (CMC), higher = larger tumour): 307 % of control | T/C (endpoint: mean tumor weight, dose: 300.0 mg/kg/injection, schedule: Q01DX011 (ip), vehicle: carboxymethylcellulose (CMC), higher = larger tumour): 119 % of control | T/C (endpoint: median survival time, dose: 3.12 mg/kg/injection, schedule: Q01DX009 (ip), vehicle: gum acacia, higher = longer survival): 95 % of control | T/C (endpoint: median survival time, dose: 6.25 mg/kg/injection, schedule: Q01DX009 (ip), vehicle: gum acacia, higher = longer survival): 92 % of control | T/C (endpoint: median survival time, dose: 12.5 mg/kg/injection, schedule: Q01DX009 (ip), vehicle: gum acacia, higher = longer survival): 115 % of control | T/C (endpoint: median survival time, dose: 25.0 mg/kg/injection, schedule: Q01DX009 (ip), vehicle: gum acacia, higher = longer survival): 87 % of control
